Experiment [1] concerns PC-3. Put plainly: Cytotoxicity against human PC3 cells. In kind it is functional, cell-based.
A further experiment has as its system HCT-116. Briefly: Cytotoxicity against human HCT116 cells. It counts as functional, cell-based.
The next experiment deals with HT-29. Briefly: cells. The settings on record: Homo sapiens, HT-29, 48 h.
The subject of experiment [2] is PC-3. Briefly: cells. The settings on record: Homo sapiens, PC-3, 48 h.
A further experiment has as its system PANC-1. Briefly: Cytotoxicity against human PANC1 cells. In kind it is functional.
In experiment [3] the test system is MDA-MB-231. Briefly: Cytotoxicity against human MDA-MB-231 cells. In kind it is functional.
The test system of a further experiment is SiHa. Briefly: Cytotoxicity against human SiHa cells. In kind it is functional.
For a further experiment, the system named is Caco-2. Briefly: Cytotoxicity against human Caco2 cells. It counts as functional, cell-based.
Experiment [4] deals with MCF7. Briefly: Cytotoxicity against human MCF7 cells. In kind it is functional, cell-based.
For experiment [5], the system named is HeLa. Put plainly: Cytotoxicity against human HeLa cells. It counts as functional, cell-based.
For a further experiment, the system named is SK-BR-3. Put plainly: Cytotoxicity against human SKBR3 cells. It counts as functional, cell-based.
Experiment [6] has as its system HeLa. Put plainly: Growth inhibition of human HeLa cells. In kind it is functional.
A further experiment has as its system HepG2. Briefly: Growth inhibition of human HepG2 cells. It counts as functional.
The subject of experiment [7] is MCF7. Put plainly: Growth inhibition of human MCF7 cells. It counts as functional.
The test system of a further experiment is DU-145. Put plainly: Growth inhibition of human DU145 cells by microtiter plate assay. In kind it is functional.
For experiment [8], the system named is MDA-MB-231. Briefly: Growth inhibition of human MDA-MB-231 cells by microtiter plate assay. It counts as functional.
The subject of experiment [9] is MCF7. Put plainly: Growth inhibition of human MCF7 cells by microtiter plate assay. It counts as functional.

Consider 25 molecules from ChEMBL document CHEMBL4364264, “Tetrazole hybrids with potential anticancer activity” (Eur J Med Chem, 2019).

One may read the IC50 as the midpoint of a concentration-inhibition curve. Read a high IC50 as a need for much substance. Usually GI50 stands for the concentration that inhibits growth by half.

Values after ≈ are worked out from the molar mass of the structure shown.

Description for HT-29: Antiproliferative activity against human HT-29 cells after 48 hrs by MTT assay

Consider `COc1cc(/C=C/C(=O)c2ccc(C)cc2)ccc1Oc1nnnn1-c1ccccc1`, for which the IC50 with PC-3 [1] and in the experiment with HCT-116 was 2.5 to 7 µg/mL (≈ 6.06 to 17 µM) throughout.

For the molecule `COc1ccc(-c2nn(-c3ccccc3)cc2-c2nnn(CC(=O)O)n2)cc1`, the half-inhibitory concentration (IC50) in the experiment with HT-29 and in the experiment on PC-3 [2] was 7.23 to 48.3 µM in each case.

With `O=C(O)c1cn(C2CC2)c2cc(N3CCN(C(=O)CCSc4nnnn4-c4ccc(Br)cc4)CC3)c(F)cc2c1=O`, the GI50 in the experiment on PANC-1, in the experiment with MDA-MB-231 [3] and in the experiment on SiHa was 0.066 to 1.3 µM in each case.

With `NC1=C(c2nnn[nH]2)C(c2ccccc2Cl)c2c(ccc3ccccc23)O1` (stereo unspecified), the half-inhibitory concentration (IC50) in the experiment on Caco-2, in the experiment with MCF7 [4], in the experiment with HeLa [5] and in the experiment with SK-BR-3 was 15 to 87 µM each time.

For the molecule `CN(C)C(=O)NC(c1ccccc1)n1cnnn1` (stereo unspecified), the GI50 with HeLa [6], in the experiment on HepG2 and with MCF7 [7] was 8.2 to 41 µM in each case.

For the molecule `CCn1cc(C(=O)O)c(=O)c2cnc(N3CCN(C(=O)CCSc4nnnn4-c4ccc(C(F)(F)F)cc4)CC3)nc21`, the GI50 in the experiment with PANC-1, in the experiment with MDA-MB-231 [3] and in the experiment on SiHa was 0.066 to 1.3 µM in each case.

Consider `CCc1cc2c(cc1O)CC[C@@H]1[C@@H]2CC[C@]2(C)[C@@H](Cc3nnn(C)n3)CC[C@@H]12`, for which the GI50 with DU-145, in the experiment on MDA-MB-231 [8] and with MCF7 [9] was 0.8 to 47 µM each time.

As to `COc1cc(/C=C/C(=O)c2ccc(Cl)cc2)ccc1Oc1nnnn1-c1ccccc1`, the half-maximal inhibitory concentration (IC50) in the experiment with PC-3 [1] and in the experiment with HCT-116 was 2.5 to 7 µg/mL (≈ 5.78 to 16.2 µM) in each case.

Regarding `COc1cc(/C=C/C(=O)c2ccc(F)cc2)ccc1Oc1nnnn1-c1ccccc1`, the IC50 in the experiment with PC-3 [1] and with HCT-116 was 2.5 to 7 µg/mL (≈ 6 to 16.8 µM) each time.

`NC1=C(c2nnn[nH]2)C(c2ccccc2F)c2c(ccc3ccccc23)O1` (stereo unspecified): the half-inhibitory concentration (IC50) in the experiment on Caco-2, in the experiment with MCF7 [4], in the experiment with HeLa [5] and with SK-BR-3 was 15 to 87 µM throughout.

Consider `NC(=S)NNC(c1ccc(O)cc1)n1cnnn1` (stereo unspecified), for which the 50% growth inhibitory concentration (GI50) in the experiment on HeLa [6], in the experiment on HepG2 and in the experiment on MCF7 [7] was 5.2 to 29.8 µM each time.

As for `CCc1ccc(C2C(c3nnn[nH]3)=C(N)Oc3ccc4ccccc4c32)cc1` (stereo unspecified), the 50% inhibitory concentration (IC50) in the experiment with Caco-2, in the experiment with MCF7 [4], in the experiment on HeLa [5] and in the experiment with SK-BR-3 was 15 to 87 µM each time.

For the molecule `O=C(O)Cn1nnc(-c2cn(-c3ccccc3)nc2-c2ccccc2Cl)n1`, the IC50 with HT-29 and in the experiment with PC-3 [2] was 6.43 to 18.2 µM each time.

For the molecule `CCc1cc2c(cc1OS(N)(=O)=O)CC[C@@H]1[C@@H]2CC[C@]2(C)[C@@H](Cc3nnnn3C)CC[C@@H]12`, the 50% growth inhibitory concentration (GI50) in the experiment on DU-145, with MDA-MB-231 [8] and in the experiment with MCF7 [9] was 0.34 to 0.55 µM throughout.

For the molecule `COc1ccc(OC)c(C2C(c3nnn[nH]3)=C(N)Oc3ccc4ccccc4c32)c1` (stereo unspecified), the IC50 in the experiment on Caco-2, in the experiment with MCF7 [4], in the experiment with HeLa [5] and in the experiment on SK-BR-3 was 15 to 87 µM each time.

In the case of `CN(C)C(=O)NC(c1ccc(O)cc1)n1cnnn1` (stereo unspecified), the GI50 in the experiment with HeLa [6], in the experiment with HepG2 and in the experiment on MCF7 [7] was 8.2 to 41 µM each time.

Consider `NC1=C(c2nnn[nH]2)C(c2ccc(Br)cc2)c2c(ccc3ccccc23)O1` (stereo unspecified), for which the half-inhibitory concentration (IC50) with Caco-2, with MCF7 [4], in the experiment with HeLa [5] and in the experiment with SK-BR-3 was 15 to 87 µM in each case.

`COc1ccc(C(=O)/C=C/c2ccc(Oc3nnnn3-c3ccccc3)cc2)cc1OC`: the IC50 with PC-3 [1] amounted to 3 µg/mL (≈ 7 µM); in the experiment with HCT-116, 3.7 µg/mL (≈ 8.64 µM).

For the molecule `COc1ccc(C(=O)/C=C/c2ccc(Oc3nnnn3-c3ccccc3)c(OC)c2)cc1OC`, the IC50 is 2.2 µg/mL (≈ 4.8 µM) in the experiment on PC-3 [1] and 1.6 µg/mL (≈ 3.49 µM) in the experiment on HCT-116.

Take `O=C(O)Cn1nnc(-c2cn(-c3ccccc3)nc2-c2ccc(Cl)cc2)n1`: the IC50 in the experiment on HT-29 was 6.43 µM; with PC-3 [2], 9.83 µM.

`NC1=C(c2nnn[nH]2)C(c2ccc(Cl)cc2)c2c(ccc3ccccc23)O1` (stereo unspecified): the 50% inhibitory concentration (IC50) in the experiment with Caco-2, in the experiment with MCF7 [4], with HeLa [5] and in the experiment with SK-BR-3 was 15 to 87 µM each time.

As to `CCc1cc2c(cc1O)CC[C@@H]1[C@@H]2CC[C@]2(C)[C@@H](Cc3nnn[nH]3)CC[C@@H]12`, the GI50 in the experiment with DU-145, in the experiment on MDA-MB-231 [8] and in the experiment with MCF7 [9] was 0.34 to 100 µM in each case.

As to `CCc1cc2c(cc1OS(N)(=O)=O)CC[C@@H]1[C@@H]2CC[C@]2(C)[C@@H](Cc3nnn[nH]3)CC[C@@H]12`, the concentration for 50% growth inhibition (GI50) in the experiment on DU-145, in the experiment with MDA-MB-231 [8] and in the experiment with MCF7 [9] was 0.34 to 100 µM throughout.

In the case of `O=c1[nH]cc(F)c(=O)[nH]1` [FLUOROURACIL], the concentration for half-maximal inhibition (IC50) in the experiment on Caco-2 is 10 to 17 µM; in the experiment on PC-3 [1], 21.4 µg/mL (≈ 165 µM); in the experiment with MCF7 [4] it was 9.74 to 21.4 µg/mL; in the experiment on HCT-116, 17.3 µg/mL (≈ 133 µM); with HeLa [5], 10 to 17 µM; with SK-BR-3, 10 to 17 µM.

With `CC/C(=C(\c1ccccc1)c1ccc(OCCN(C)C)cc1)c1ccccc1` [TAMOXIFEN], the GI50 came to 0.15 µM in the experiment with PANC-1, 0.24 µM with MDA-MB-231 [3] and 0.12 µM in the experiment on SiHa.
